Consider one compound from patent publication EP1028947B1, “H3 RECEPTOR LIGANDS OF THE PHENYL-ALKYL-[…]” (SCHERING CORPORATION, priority 1997, dated 1999).

The structures appear in SMILES notation.

Series [1] in a line: Blood levels of the compound (no method described). In kind it is in vivo. Conditions: compared with the preferred compounds of WO 95/14007; statement in words, no data.
The next series deals with T1, H3 receptors (Cavia porcellus, UniProt Q9JI35).
T1 construct: The source of the H3 receptors in this experiment was guinea pig brain; from tissue; host or cells: guinea pig brain membranes
T1 sequence (Q9JI35 whole entry): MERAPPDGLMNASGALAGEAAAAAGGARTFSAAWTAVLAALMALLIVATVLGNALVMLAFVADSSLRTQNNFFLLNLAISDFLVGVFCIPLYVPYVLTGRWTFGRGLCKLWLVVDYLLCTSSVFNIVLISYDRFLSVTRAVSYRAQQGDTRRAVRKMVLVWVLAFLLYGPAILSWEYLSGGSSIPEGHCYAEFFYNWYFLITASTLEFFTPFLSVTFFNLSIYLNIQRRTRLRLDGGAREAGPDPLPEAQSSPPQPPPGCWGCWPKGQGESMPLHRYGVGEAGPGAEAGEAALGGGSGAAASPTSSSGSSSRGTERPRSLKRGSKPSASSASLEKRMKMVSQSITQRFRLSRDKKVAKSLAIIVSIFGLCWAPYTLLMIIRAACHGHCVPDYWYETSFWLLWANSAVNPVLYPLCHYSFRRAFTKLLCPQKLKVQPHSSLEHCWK
Put plainly: H3-Receptor Binding Assay. The conditions noted are these: guinea pig brain membranes; 3 nM [3H]R-a-methylhistamine or 3 nM [3H]Na-methylhistamine; 30°C for 30 min; HCl salt of the compound. On the procedure:
H3-Receptor Binding Assay
The source of the H3 receptors in this experiment was guinea pig brain. The animals weighed 400-600 g. The brain tissue was homogenized using a Polytron in a solution of 50 mM Tris, pH 7.5. The final concentration of tissue in the homogenization buffer was 10% w/v. The homogenates were centrifuged at 1,000 x g for 10 min. in order to remove clumps of tissue and debris. The resulting supematants were then centrifuged at 50,000 x g for 20 min. in order to sediment the membranes, which were next washed three times in homogenization buffer (50,000 x g for 20 min. each). The membranes were frozen and stored at -70°C until needed.
The compound to be tested was dissolved in DMSO and then diluted into the binding buffer (50 mM Tris, pH 7.5) such that the final concentration was 2 µg/ml with 0.1% DMSO. Membranes were then added (400 µg of protein) to the reaction tubes. The reaction was started by the addition of 3 nM [^3H]R-a-methylhistamine (8.8 Ci/mmol) or 3 nM [^3H]N^a-methylhistamine (80 Ci/mmol) and continued under incubation at 30°C for 30 min. Bound ligand was separated from unbound ligand by filtration, and the amount of radioactive ligand bound to the membranes was quantitated by liquid scintillation spectrometry. All incubations were performed in duplicate and the standard error was always less than 10%. The Compound was serially diluted to determine a Ki (nM). […]

On to `O=C(NCc1ccc(Cc2c[nH]cn2)cc1)Nc1cc(Cl)cc(Cl)c1` [compound of the present invention], for which, in series [1], the “blood levels of the compound” value is on record as “higher blood levels”. Moreover, the inhibitory constant (Ki) at H3 receptors amounted to 4 nM.

A word on the Ki: it is the equilibrium dissociation constant of an inhibitor or competing ligand from its target.
